According to patent US20150105252A1, “SUBSTITUTED PYRAZOLES AS HERBICIDES” (E I DU PONT DE NEMOURS AND COMPANY, priority 2013, published 2015):

Tests used:
sedge, umbrella = assay: Test C flooded paddy test; type: in vivo, Cyperus difformis; details: Flood
Method in brief: (§1)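 Compound was added to standing water 3 cm above soil, flood maintained, and plants held in a greenhouse before visual scoring against controls at 13 to 15 days.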

barnyardgrass [1] = assay: Test C flooded paddy test; type: in vivo, Echinochloa crus-galli; details: Flood
Method in brief: as §1

ducksalad = assay: Test C flooded paddy test; type: in vivo, Heteranthera limosa; details: Flood
Method in brief: as §1

nutsedge, yellow = assay: Test C postemergence; type: in vivo, Cyperus esculentus; details: for Plant response rating (scale of 0 to 100 where 0 is no effect and 100 is complete control), Nutsedge, Yellow: 31 g ai/ha, visually evaluated after 13 to 15 days; for Nutsedge, Yellow plant response rating / Plant response rating, Nutsedge, Yellow: postemergence; for Nutsedge, Yellow plant response rating: 62 g ai/ha, scale 0 to 100
Method in brief: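 Visual control ratings on a 0–100 scale (100 = complete control) made against untreated controls after 13 to 15 days in greenhouse. Compounds applied in surfactant-containing solvent mixture, either preemergence to loam/sand-sown seeds or postemergence to 1- to 4-leaf plants (2–18 cm) in peat medium.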

corn = assay: Test A postemergence; type: in vivo, Zea mays
Method in brief: (§2)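 After sowing in a sand–loam mix, pots received compound preemergence by directed soil spray, or postemergence once plants reached the one- to two-leaf stage (2–10 cm). Formulation contained surfactant in a non-phytotoxic solvent. Injury was scored visually after ~10 greenhouse days, 0–100 scale.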

rice = assay: Test C flooded paddy test; type: in vivo, Oryza sativa; details: Flood
Method in brief: as §1

barnyardgrass [2] = assay: Test B flood; type: in vivo, Echinochloa crus-galli; details: 250 g ai/ha, visual rating on 0 to 100 scale (0 no effect, 100 complete control), 13 to 15 days
Method in brief: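 Visual ratings (0 = no effect, 100 = complete control) versus untreated controls were taken 13–15 days after treatment of greenhouse plants. Treatment was added to paddy water held at 3 cm depth on 2-leaf-stage seedlings.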

velvetleaf = assay: Test A postemergence; type: in vivo, Abutilon theophrasti
Method in brief: as §2

[3] = 62 g ai/ha, scale 0 to 100 (0 no effect, 100 complete control)
[4] = 125 g ai/ha, scale 0 to 100 (0 no effect, 100 complete control)
[5] = 250 g ai/ha, scale 0 to 100 (0 no effect, 100 complete control)
[6] = 125 g ai/ha, scale 0 to 100, 0 no effect, 100 complete control
[7] = Postemergence, 500 g ai/ha, 0 to 100 scale (0 no effect, 100 complete control)
[8] = postemergence, 125 g ai/ha, about 10 days, visual rating on 0 to 100 scale (0 no effect, 100 complete control)
[9] = 31 g ai/ha, scale 0 to 100 (0 no effect, 100 complete control)
[10] = Postemergence, 500 g ai/ha, visual rating after approx. 10 days, 0 to 100 scale (0 no effect, 100 complete control)

SMILES	Plant response rating, Sedge, Umbrella (sedge, umbrella; [3])	Plant response rating, Sedge, Umbrella (sedge, umbrella; 250 g ai/ha, scale 0 to 100)	Plant response rating, Barnyardgrass (barnyardgrass [1]; [3])	Plant response rating, Barnyardgrass (barnyardgrass [1]; 250 g ai/ha, scale 0 to 100)	Plant response rating, Ducksalad (ducksalad; [3])	Plant response rating, Ducksalad (ducksalad; 250 g ai/ha, scale 0 to 100)	Plant response rating (scale of 0 to 100 where 0 is no effect and 100 is complete control), Nutsedge, Yellow (nutsedge, yellow; Postemergence)	Nutsedge, Yellow plant response rating (nutsedge, yellow)	Plant response rating, Nutsedge, Yellow (nutsedge, yellow; [5])	Plant response rating, Nutsedge, Yellow (nutsedge, yellow; [6])	Corn plant response rating (corn; [7])	Corn plant response rating (corn; [8])	Plant response rating, Rice (rice; [3])	Plant response rating, Rice (rice; 250 g ai/ha, scale 0 to 100)	Plant response rating, Barnyardgrass (barnyardgrass [2])	Plant response rating, Sedge, Umbrella (sedge, umbrella; [9])	Plant response rating, Sedge, Umbrella (sedge, umbrella; 125 g ai/ha, scale 0 to 100)	Plant response rating, Barnyardgrass (barnyardgrass [1]; [9])	Plant response rating, Ducksalad (ducksalad; [9])	Plant response rating, Rice (rice; [9])	also measured
CCCc1cc(C(=O)NC2CC2)nn1Cc1ccnc(OC(F)F)c1 [Compound 205]	75	100	0	35	75	100	5	5	15	15	100	70	0	0	50	–	–	–	–	–	Plant response rating, Sedge, Umbrella (sedge, umbrella; [4]): 95; Plant response rating, Sedge, Umbrella (sedge, umbrella; 500 g ai/ha, scale 0 to 100): 100; Plant response rating, Barnyardgrass (barnyardgrass [1]; [4]): 25; Plant response rating, Barnyardgrass (barnyardgrass [1]; 500 g ai/ha, scale 0 to 100): 60; Plant response rating, Ducksalad (ducksalad; [4]): 90; Plant response rating, Ducksalad (ducksalad; 500 g ai/ha, scale 0 to 100): 100; Plant response rating, Rice (rice; [4]): 0; Plant response rating, Rice (rice; 500 g ai/ha, scale 0 to 100): 35
CCCNC(=O)c1cc(CC)n(Cc2nc(C(F)(F)F)nn2C)n1 [Compound 109]	60	85	0	40	40	85	0	5	5	5	–	80	0	35	0	30	75	0	30	0	Plant response rating, Barnyardgrass (barnyardgrass [1]; 125 g ai/ha, scale 0 to 100): 35; Plant response rating, Ducksalad (ducksalad; 125 g ai/ha, scale 0 to 100): 75; Corn plant response rating (corn; [10]): 90; Plant response rating, Rice (rice; 125 g ai/ha, scale 0 to 100): 20; Velvetleaf plant response rating (velvetleaf; [10]): 90; Velvetleaf plant response rating (velvetleaf; [8]): 60
CCCc1cc(C(=O)NCC(F)(F)F)nn1Cc1ccnc(OC(F)F)c1 [Compound 127]	60	95	0	30	40	80	5	5	25	15	90	90	0	0	70	50	70	0	30	0	Plant response rating, Barnyardgrass (barnyardgrass [1]; 125 g ai/ha, scale 0 to 100): 15; Plant response rating, Ducksalad (ducksalad; 125 g ai/ha, scale 0 to 100): 60; Plant response rating, Rice (rice; 125 g ai/ha, scale 0 to 100): 0
CCOc1cc(C(=O)NCC(F)(F)F)nn1Cc1ccnc(OC(F)F)c1 [Compound 128]	50	85	0	–	75	90	5	5	25	10	90	90	0	0	70	30	75	0	40	0	Plant response rating, Barnyardgrass (barnyardgrass [1]; 125 g ai/ha, scale 0 to 100): 35; Plant response rating, Ducksalad (ducksalad; 125 g ai/ha, scale 0 to 100): 80; Plant response rating, Rice (rice; 125 g ai/ha, scale 0 to 100): 0
CCONC(=O)c1cc(CC)n(Cc2ccnc(C(F)(F)F)c2)n1 [Compound 77]	50	75	0	20	40	75	5	5	–	5	–	30	0	0	0	0	60	0	20	0	Plant response rating, Barnyardgrass (barnyardgrass [1]; 125 g ai/ha, scale 0 to 100): 20; Plant response rating, Ducksalad (ducksalad; 125 g ai/ha, scale 0 to 100): 70; Plant response rating (scale of 0 to 100), Nutsedge, Yellow (nutsedge, yellow; Postemergence, 16 g ai/ha): 0; Corn plant response rating (corn; [10]): 40; Plant response rating, Rice (rice; 125 g ai/ha, scale 0 to 100): 0; Velvetleaf plant response rating (velvetleaf; [10]): 100; Velvetleaf plant response rating (velvetleaf; [8]): 80
CCCNC(=O)c1cc(CCF)n(Cc2ccnc(C(F)(F)F)c2)n1 [Compound 177]	75	90	0	0	50	85	10	5	15	5	100	90	0	0	60	50	–	0	0	0	Plant response rating, Sedge, Umbrella (sedge, umbrella; [4]): 85; Plant response rating, Barnyardgrass (barnyardgrass [1]; [4]): 0; Plant response rating, Ducksalad (ducksalad; [4]): 75; Plant response rating, Rice (rice; [4]): 0; Velvetleaf plant response rating (velvetleaf; [7]): 100; Velvetleaf plant response rating (velvetleaf; [8]): 40
O=C(NC1CC1)c1cc(CCF)n(Cc2ccnc(C(F)(F)F)c2)n1 [Compound 176]	40	100	0	10	70	100	–	–	–	–	80	40	0	20	35	0	95	0	0	0	Plant response rating, Barnyardgrass (barnyardgrass [1]; 125 g ai/ha, scale 0 to 100): 20; Plant response rating, Ducksalad (ducksalad; 125 g ai/ha, scale 0 to 100): 95; Plant response rating, Rice (rice; 125 g ai/ha, scale 0 to 100): 20; Velvetleaf plant response rating (velvetleaf; [7]): 90; Velvetleaf plant response rating (velvetleaf; [8]): 40
CCCc1cc(C(=O)NOC(C)C)nn1Cc1cc(C(F)(F)F)nn1C [Compound 203]	40	85	0	0	0	80	–	–	–	–	100	50	0	0	25	40	–	0	0	0	Plant response rating, Sedge, Umbrella (sedge, umbrella; [4]): 70; Plant response rating, Barnyardgrass (barnyardgrass [1]; [4]): 0; Plant response rating, Ducksalad (ducksalad; [4]): 20; Plant response rating, Rice (rice; [4]): 0; Velvetleaf plant response rating (velvetleaf; Postemergence, 125 g ai/ha, 0 to 100 scale, 0 no effect, 100 complete control): 30; Velvetleaf plant response rating (velvetleaf; [7]): 90
